What all share (test): coupled ATP synthesis in proteoliposomes, luciferase luminescence
The target of data set [1] is T1, quinone-fumarate oxidoreductase (FRD) (Escherichia coli, UniProt P00363).
T1 construct: gene frdA; coreconstituted in liposomes; with Fumarate reductase iron-sulfur subunit; Fumarate reductase subunit C; Fumarate reductase subunit D
The class given is biochemical.

In data set [2] the target is T1, quinone-fumarate oxidoreductase (FRD). The class given is biochemical. The note with it: bo3 oxidase and ATP synthase coreconstituted in E. coli polar lipid liposomes, 2 mol % ubiquinone Q8, succinate 1-2000 μM, pH 7.5, read-out is the coupled rate, read-out: apparent KM.
Substrate in data set [3]: NC(=O)C1=CN([C@@H]2O[C@H](COP(=O)(O)OP(=O)(O)OC[C@H]3O[C@@H](n4cnc5c(N)ncnc54)[C@H](O)[C@@H]3O)[C@@H](O)[C@H]2O)C=CC1
The format is biochemical, Escherichia coli. The conditions noted are these: NDH-2 added to liposomes with bo3 oxidase, FRD and ATP synthase, 2 mol % ubiquinone Q8, NADH 5-200 μM, pH 7.5, read-out is the coupled rate.

T1 sequence (P00363 2-602, other chains not shown): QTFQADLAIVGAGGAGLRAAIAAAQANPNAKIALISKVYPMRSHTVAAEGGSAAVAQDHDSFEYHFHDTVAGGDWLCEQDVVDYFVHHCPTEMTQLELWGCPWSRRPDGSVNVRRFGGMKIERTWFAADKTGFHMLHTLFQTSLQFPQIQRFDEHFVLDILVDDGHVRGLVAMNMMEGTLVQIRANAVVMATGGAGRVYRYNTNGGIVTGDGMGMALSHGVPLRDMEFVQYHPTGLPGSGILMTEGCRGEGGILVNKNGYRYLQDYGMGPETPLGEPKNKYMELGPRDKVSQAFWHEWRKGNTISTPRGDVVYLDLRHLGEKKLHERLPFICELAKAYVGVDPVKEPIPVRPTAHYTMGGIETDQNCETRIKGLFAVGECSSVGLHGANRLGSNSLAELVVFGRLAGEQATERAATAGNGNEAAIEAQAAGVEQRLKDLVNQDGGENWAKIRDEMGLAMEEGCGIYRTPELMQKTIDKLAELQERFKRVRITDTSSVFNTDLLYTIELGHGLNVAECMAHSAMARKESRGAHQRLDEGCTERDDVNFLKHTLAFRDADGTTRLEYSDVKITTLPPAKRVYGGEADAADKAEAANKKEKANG
T1 sequence (P0AC47 2-244 partner, other chains not shown): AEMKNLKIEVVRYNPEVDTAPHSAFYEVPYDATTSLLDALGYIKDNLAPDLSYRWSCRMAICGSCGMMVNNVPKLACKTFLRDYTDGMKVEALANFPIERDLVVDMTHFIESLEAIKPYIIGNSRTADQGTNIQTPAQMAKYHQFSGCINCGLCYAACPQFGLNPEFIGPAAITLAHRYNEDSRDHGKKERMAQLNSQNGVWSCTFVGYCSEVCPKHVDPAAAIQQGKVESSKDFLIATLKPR
T1 sequence (P0A8Q0 whole entry partner, other chains not shown): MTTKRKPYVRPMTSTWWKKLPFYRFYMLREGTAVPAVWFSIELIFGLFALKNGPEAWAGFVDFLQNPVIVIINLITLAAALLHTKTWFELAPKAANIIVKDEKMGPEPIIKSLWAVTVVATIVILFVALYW

Take `O=C(O)CC(=O)O` [malonate]: the “coupled ATP synthesis in proteoliposomes, luciferase luminescence” value in data set [1] is reported as “The reaction was sensitive to the complex II inhibitor malonate”. In the case of `O=C(O)CCC(=O)O` [succinate], the Km (commonly the substrate concentration at which the rate is half of its maximum) in data set [2] turned out to be 62.2 µM.

B1: NADH dehydrogenase II (NDH-2) (Escherichia coli K-12) (protein)
chain: TTPLKKIVIVGGGAGGLEMATQLGHKLGRKKKAKITLVDRNHSHLWKPLLHEVATGSLDEGVDALSYLAHARNHGFQFQLGSVIDIDREAKTITIAELRDEKGELLVPERKIAYDTLVMALGSTSNDFNTPGVKENCIFLDNPHQARRFHQEMLNLFLKYSANLGANGKVNIAIVGGGATGVELSAELHNAVKQLHSYGYKGLTNEALNVTLVEAGERILPALPPRISAAAHNELTKLGVRVLTQTMVTSADEGGLHTKDGEYIEADLMVWAAGIKAPDFLKDIGGLETNRINQLVVEPTLQTTRDPDIYAIGDCASCPRPEGGFVPPRAQAAHQMATCAMNNILAQMNGKPLKNYQYKDHGSLVSLSNFSTVGSLMGNLTRGSMMIEGRIARFVYISLYRMHQIALHGYFKTGLMMLVGSINRVIRPRLKLH
notes: 45 kDa peripheral membrane protein with FAD
As to B1, the Km in data set [3] was determined as 18.5 µM.

For the origin of these results see publication PMC11669383, “Modulating Liposome Surface Charge for Maximized ATP Regeneration in Synthetic Nanovesicles” (ACS Synthetic Biology, 2024).
